IC50 data for 33 compounds are collected here from patent US20130303509A1, “NAMPT INHIBITORS” (AbbVie Inc., priority 2012, published 2013).

Molecules are shown by their SMILES.

This assay concerns PC3 cells. The experiment in a line: NAMPT Cell Proliferation Assay. To be noted: Homo sapiens, PC-3, 120 h, 5 days incubation, cell viability by Cell Titer Glo. The format is cell-based. Put shortly:
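Seeded at 500 cells/well in RPMI with 10% heat-inactivated FBS and left to attach overnight at 37° C, 5% CO2. Compounds were added as 10-fold dilutions […] for 5 days, then viability was read by CellTiter-Glo. IC50s came from sigmoidal fits of percent inhibition.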
For orientation: ATP-based viability assays read luminescence as a measure of living cells.

Take `O=C(NCC(=O)N1CCC(c2ccc(NC(=O)[C@H]3CCN(c4cccnn4)C3)cc2)CC1)c1ccccc1` [Example 650, (3S)-N-{4-[1-(N-benzoylglycyl)piperidin-4-yl]phenyl}-1-(pyridazin-3-yl)pyrrolidine-3-carboxamide]: half-maximal inhibition (IC50) required 86.9 nM. `O=C(Nc1ccc(C2CCN(C(=O)Cc3ccc(Cl)cc3Cl)CC2)cc1)[C@H]1CCN(c2cccnn2)C1` [Example 651, (3S)-N-(4-{1-[(2,4-dichlorophenyl)acetyl]piperidin-4-yl}phenyl)-1-(pyridazin-3-yl)pyrrolidine-3-carboxamide] had an IC50 of 27.6 nM. The same measure for `Cc1ccccc1C(=O)N1CCC(c2ccc(NC(=O)[C@H]3CCN(c4cccnn4)C3)cc2)CC1` [Example 652, (3S)-N-{4-[1-(2-methylbenzoyl)piperidin-4-yl]phenyl}-1-(pyridazin-3-yl)pyrrolidine-3-carboxamide]: 6.14 nM.

The compound `O=C(Nc1ccc(C2CCN(C(=O)CCC(F)(F)F)CC2)cc1)[C@H]1CCN(c2cccnn2)C1` [Example 653, (3S)-1-(pyridazin-3-yl)-N-{4-[1-(4,4,4-trifluorobutanoyl)piperidin-4-yl]phenyl}pyrrolidine-3-carboxamide] showed an IC50 of 9.72 nM. As to `CC1(C(=O)N2CCC(c3ccc(NC(=O)[C@H]4CCN(c5cccnn5)C4)cc3)CC2)CCCCC1` [Example 654, (3S)-N-(4-{1-[(1-methylcyclohexyl)carbonyl]piperidin-4-yl}phenyl)-1-(pyridazin-3-yl)pyrrolidine-3-carboxamide], half-maximal inhibition (IC50) required 2.76 nM. Compared with the last compound, the IC50 is about 3.5-fold lower. The same measure for `O=C(Nc1ccc(C2CCN(C(=O)c3ccsc3)CC2)cc1)[C@H]1CCN(c2cccnn2)C1` [Example 655, (3S)-1-(pyridazin-3-yl)-N-{4-[1-(thiophen-3-ylcarbonyl)piperidin-4-yl]phenyl}pyrrolidine-3-carboxamide]: 0.475 nM; for `Cc1ccc(C(=O)N2CCC(c3ccc(NC(=O)[C@H]4CCN(c5cccnn5)C4)cc3)CC2)cn1` [Example 656, (3S)-N-(4-{1-[(6-methylpyridin-3-yl)carbonyl]piperidin-4-yl}phenyl)-1-(pyridazin-3-yl)pyrrolidine-3-carboxamide]: 61 nM; for `O=C(Nc1ccc(C2CCN(C(=O)Cc3cccc(Cl)c3)CC2)cc1)[C@H]1CCN(c2cccnn2)C1` [Example 657, (3S)-N-(4-{1-[(3-chlorophenyl)acetyl]piperidin-4-yl}phenyl)-1-(pyridazin-3-yl)pyrrolidine-3-carboxamide]: 8.44 nM. As for `CCC(=O)N1CCC(c2ccc(NC(=O)[C@H]3CCN(c4cccnn4)C3)cc2)CC1` [Example 658, (3S)-N-[4-(1-propanoylpiperidin-4-yl)phenyl]-1-(pyridazin-3-yl)pyrrolidine-3-carboxamide], the IC50 worked out at 14.4 nM. The same measure for `O=C(Nc1ccc(C2CCN(C(=O)c3cc(F)cc(F)c3)CC2)cc1)[C@H]1CCN(c2cccnn2)C1` [Example 659, (3S)-N-{4-[1-(3,5-difluorobenzoyl)piperidin-4-yl]phenyl}-1-(pyridazin-3-yl)pyrrolidine-3-carboxamide]: 11.2 nM; for `O=C(Nc1ccc(C2CCN(C(=O)C3CCCC3)CC2)cc1)[C@H]1CCN(c2cccnn2)C1` [Example 660, (3S)-N-{4-[1-(cyclopentylcarbonyl)piperidin-4-yl]phenyl}-1-(pyridazin-3-yl)pyrrolidine-3-carboxamide]: 5.23 nM; for `O=C(Nc1ccc(C2CCN(C(=O)C3CCCO3)CC2)cc1)[C@H]1CCN(c2cccnn2)C1` (stereo partly drawn) [Example 661, (3S)-1-(pyridazin-3-yl)-N-{4-[1-(tetrahydrofuran-2-ylcarbonyl)piperidin-4-yl]phenyl}pyrrolidine-3-carboxamide]: 21.6 nM. The same measure for `O=C(Nc1ccc(C2CCN(C(=O)C3CC3)CC2)cc1)[C@H]1CCN(c2cccnn2)C1` [Example 662, (3S)-N-{4-[1-(cyclopropylcarbonyl)piperidin-4-yl]phenyl}-1-(pyridazin-3-yl)pyrrolidine-3-carboxamide]: 15.9 nM; for `O=C(Nc1ccc(C2CCN(C(=O)c3ccc(Cl)cc3)CC2)cc1)[C@H]1CCN(c2cccnn2)C1` [Example 663, (3S)-N-{4-[1-(4-chlorobenzoyl)piperidin-4-yl]phenyl}-1-(pyridazin-3-yl)pyrrolidine-3-carboxamide]: 31.6 nM. The same measure for `CC(C)Cn1cc(-c2cc(C(=O)N[C@H]3CCN(c4cccnn4)C3)cs2)cn1` [Example 664, 5-[1-(2-methylpropyl)-1H-pyrazol-4-yl]-N-[(3S)-1-(pyridazin-3-yl)pyrrolidin-3-yl]thiophene-3-carboxamide]: 1150 nM. `Cc1cc(N2CC(C(=O)Nc3ccc(C4CCN(C(=O)c5ccccc5)CC4)cc3)C2)cnc1F` [Example 665, N-[4-(1-benzoylpiperidin-4-yl)phenyl]-1-(6-fluoro-5-methylpyridin-3-yl)azetidine-3-carboxamide] displayed an IC50 of 7620 nM. The same measure for `O=C(Nc1ccc(C2CCN(C(=O)c3ccccc3)CC2)cc1)C1CN(c2cncc(F)c2)C1` [Example 666, N-[4-(1-benzoylpiperidin-4-yl)phenyl]-1-(5-fluoropyridin-3-yl)azetidine-3-carboxamide]: 8.06 nM; for `Cc1ccc(N2CC(C(=O)Nc3ccc(C4CCN(C(=O)c5ccccc5)CC4)cc3)C2)nn1` [Example 667, N-[4-(1-benzoylpiperidin-4-yl)phenyl]-1-(6-methylpyridazin-3-yl)azetidine-3-carboxamide]: 12.5 nM. `Cc1ccc(N2CC(C(=O)Nc3ccc(C4CCN(C(=O)c5ccccc5)CC4)cc3)C2)c(F)n1` [Example 668, N-[4-(1-benzoylpiperidin-4-yl)phenyl]-1-(2-fluoro-6-methylpyridin-3-yl)azetidine-3-carboxamide] came in with an IC50 of over 10000 nM. The same measure for `O=C(Nc1ccc(C2CCN(C(=O)c3ccccc3Cl)CC2)cc1)[C@H]1CCN(c2cccnn2)C1` [Example 669, (3S)-N-{4-[1-(2-chlorobenzoyl)piperidin-4-yl]phenyl}-1-(pyridazin-3-yl)pyrrolidine-3-carboxamide]: 1.88 nM. The same measure for `CCCC(C)C(=O)N1CCC(c2ccc(NC(=O)[C@H]3CCN(c4cccnn4)C3)cc2)CC1` (stereo partly drawn) [Example 670, (3S)-N-{4-[1-(2-methylpentanoyl)piperidin-4-yl]phenyl}-1-(pyridazin-3-yl)pyrrolidine-3-carboxamide]: 8.53 nM; for `CC(C)CCC(=O)N1CCC(c2ccc(NC(=O)[C@H]3CCN(c4cccnn4)C3)cc2)CC1` [Example 671, (3S)-N-{4-[1-(4-methylpentanoyl)piperidin-4-yl]phenyl}-1-(pyridazin-3-yl)pyrrolidine-3-carboxamide]: 8.53 nM; for `Cc1ccc(C(=O)N2CCC(c3ccc(NC(=O)[C@H]4CCN(c5cccnn5)C4)cc3)CC2)c(C)c1` [Example 672, (3S)-N-{4-[1-(2,4-dimethylbenzoyl)piperidin-4-yl]phenyl}-1-(pyridazin-3-yl)pyrrolidine-3-carboxamide]: 4.05 nM. The compound `CCCCCCC(=O)N1CCC(c2ccc(NC(=O)[C@H]3CCN(c4cccnn4)C3)cc2)CC1` [Example 673, (3S)-N-[4-(1-heptanoylpiperidin-4-yl)phenyl]-1-(pyridazin-3-yl)pyrrolidine-3-carboxamide] registered an IC50 of 11.6 nM. The same measure for `O=C(Nc1ccc(C2CCN(C(=O)c3ccc(Cl)cc3Cl)CC2)cc1)[C@H]1CCN(c2cccnn2)C1` [Example 674, (3S)-N-{4-[1-(2,4-dichlorobenzoyl)piperidin-4-yl]phenyl}-1-(pyridazin-3-yl)pyrrolidine-3-carboxamide]: 5.72 nM. In turn, `O=C(Nc1ccc(C2CCN(C(=O)Cc3ccc(F)cc3)CC2)cc1)[C@H]1CCN(c2cccnn2)C1` [Example 675, (3S)-N-(4-{1-[(4-fluorophenyl)acetyl]piperidin-4-yl}phenyl)-1-(pyridazin-3-yl)pyrrolidine-3-carboxamide] came in with an IC50 of 69.3 nM. The same measure for `O=C(Nc1ccc(C2CCN(C(=O)c3cccc(F)c3F)CC2)cc1)[C@H]1CCN(c2cccnn2)C1` [Example 676, (3S)-N-{4-[1-(2,3-difluorobenzoyl)piperidin-4-yl]phenyl}-1-(pyridazin-3-yl)pyrrolidine-3-carboxamide]: 2.02 nM. The same measure for `Cc1cccc(C(=O)N2CCC(c3ccc(NC(=O)[C@H]4CCN(c5cccnn5)C4)cc3)CC2)c1` [Example 677, (3S)-N-{4-[1-(3-methylbenzoyl)piperidin-4-yl]phenyl}-1-(pyridazin-3-yl)pyrrolidine-3-carboxamide]: 9.3 nM; for `CCCCCC(=O)N1CCC(c2ccc(NC(=O)[C@H]3CCN(c4cccnn4)C3)cc2)CC1` [Example 678, (3S)-N-[4-(1-hexanoylpiperidin-4-yl)phenyl]-1-(pyridazin-3-yl)pyrrolidine-3-carboxamide]: 6.09 nM; for `Cc1ccsc1C(=O)N1CCC(c2ccc(NC(=O)[C@H]3CCN(c4cccnn4)C3)cc2)CC1` [Example 679, (3S)-N-(4-{1-[(3-methylthiophen-2-yl)carbonyl]piperidin-4-yl}phenyl)-1-(pyridazin-3-yl)pyrrolidine-3-carboxamide]: 0.6 nM. Take `CC(C)C(C)C(=O)N1CCC(c2ccc(NC(=O)[C@H]3CCN(c4cccnn4)C3)cc2)CC1` (stereo partly drawn) [Example 680, (3S)-N-{4-[1-(2,3-dimethylbutanoyl)piperidin-4-yl]phenyl}-1-(pyridazin-3-yl)pyrrolidine-3-carboxamide]: the IC50 came to 3.55 nM. Turning to `CCCC(=O)N1CCC(c2ccc(NC(=O)[C@H]3CCN(c4cccnn4)C3)cc2)CC1` [Example 681, (3S)-N-[4-(1-butanoylpiperidin-4-yl)phenyl]-1-(pyridazin-3-yl)pyrrolidine-3-carboxamide], the IC50 amounted to 9.02 nM. The compound `CCC(C)CC(=O)N1CCC(c2ccc(NC(=O)[C@H]3CCN(c4cccnn4)C3)cc2)CC1` (stereo partly drawn) [Example 682, (3S)-N-{4-[1-(3-methylpentanoyl)piperidin-4-yl]phenyl}-1-(pyridazin-3-yl)pyrrolidine-3-carboxamide] registered an IC50 of 2.73 nM.

What is called IC50 is the concentration needed to halve the response being measured. The low end stands for greater potency in that assay, the high end for weaker potency in that assay.
